In ChEMBL document CHEMBL1201862, “PubChem BioAssay data set” (2004):
Active and inactive are the calls of the source.

Tests used:
[1] = target: T1, Calpain-2 catalytic subunit (Sus scrofa, UniProt P43367); experiment: pig calpain II inhibitor potency, dose response, biochemical, fluorogenic peptide substrate (AID 1420); assay type: functional
T1 sequence (P43367 whole entry): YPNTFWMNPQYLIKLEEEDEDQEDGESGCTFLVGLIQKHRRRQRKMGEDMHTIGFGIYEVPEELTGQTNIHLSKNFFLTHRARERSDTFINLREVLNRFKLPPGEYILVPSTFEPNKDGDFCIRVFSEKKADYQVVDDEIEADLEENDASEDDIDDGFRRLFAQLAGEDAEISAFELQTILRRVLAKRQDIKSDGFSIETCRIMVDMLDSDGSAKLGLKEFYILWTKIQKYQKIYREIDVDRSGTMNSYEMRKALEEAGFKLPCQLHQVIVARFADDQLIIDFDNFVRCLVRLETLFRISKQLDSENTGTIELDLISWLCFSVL

[2] = target: T2, Mannose-6-phosphate isomerase (Homo sapiens, UniProt P34949); experiment: human PMI inhibitors, high substrate, primary screen, biochemical, fluorescence intensity, high mannose 6-phosphate (AID 1220)
T2 sequence (P34949 whole entry): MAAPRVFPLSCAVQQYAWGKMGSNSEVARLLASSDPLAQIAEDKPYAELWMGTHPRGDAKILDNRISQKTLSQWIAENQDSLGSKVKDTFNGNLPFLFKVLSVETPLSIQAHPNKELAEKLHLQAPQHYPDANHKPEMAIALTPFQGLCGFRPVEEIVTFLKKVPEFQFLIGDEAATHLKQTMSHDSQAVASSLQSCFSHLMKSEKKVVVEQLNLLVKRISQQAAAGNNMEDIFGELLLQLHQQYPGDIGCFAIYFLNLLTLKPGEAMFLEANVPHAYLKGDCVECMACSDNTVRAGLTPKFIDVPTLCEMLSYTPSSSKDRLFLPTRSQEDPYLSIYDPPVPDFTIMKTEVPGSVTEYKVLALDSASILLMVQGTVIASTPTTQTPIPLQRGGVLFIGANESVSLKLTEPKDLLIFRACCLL

cells = assay type: functional
[3] = inhibitors of clade B AD8 Env fusion, dose response, cell-based, cherry-pick (AID 652062); assay type: functional;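 note: luciferase signal from cell-cell fusion driven by HIV-1 clade B AD8 Env; potency is for inhibitors of fusion seen as a drop in luminescence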
[4] = off-target signal loss in HeLa-CEM21 co-culture – HeLa F-luc CTL cells, cherry-picked, counter-screen for HIV-1 Env fusion inhibitor project, dose response (AID 652040); assay type: functional, cell-based;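 note: potency for signal decrease marking cytotoxic or nonspecific inhibition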
[5] = inhibitors of Vif binding to APOBEC3G peptide, primary screen, biochemical, TR-FRET, GST-Vif 1-94, biotin-A3G peptide, dose response retest (AID 1117319); assay type: functional;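 note: TR-FRET signal of purified GST-Vif binding a biotinylated A3G peptide; inhibitors lower the FRET signal by blocking Vif and A3G binding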
[6] = Vero cell cytotoxicity, dose response, cytotoxicity control for Vif-APOBEC3G degradation inhibitor project, Vero cells (AID 1117358); assay type: functional; conditions: Human immunodeficiency virus 1, Vero
Cysteine protease ATG4B = target: T3, Cysteine protease ATG4B (Homo sapiens, UniProt Q9Y4P1); assay type: functional;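 note: Fluorescence-based dose-response confirmation assay measuring inhibition of ATG4B activity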
T3 sequence (Q9Y4P1 whole entry): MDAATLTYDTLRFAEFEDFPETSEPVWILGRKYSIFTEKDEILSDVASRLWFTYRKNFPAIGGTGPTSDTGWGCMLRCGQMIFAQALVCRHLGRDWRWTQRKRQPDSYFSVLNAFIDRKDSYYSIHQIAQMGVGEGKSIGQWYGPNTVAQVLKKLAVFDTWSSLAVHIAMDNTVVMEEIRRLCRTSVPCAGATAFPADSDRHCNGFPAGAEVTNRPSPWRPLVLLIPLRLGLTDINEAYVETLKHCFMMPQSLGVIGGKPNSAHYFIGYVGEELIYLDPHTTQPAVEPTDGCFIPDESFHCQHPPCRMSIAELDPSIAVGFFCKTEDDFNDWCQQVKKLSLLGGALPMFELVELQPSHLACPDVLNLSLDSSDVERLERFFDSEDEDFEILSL

[7] = target: T4, Long-chain-fatty-acid--AMP ligase FadD28 (Mycobacterium tuberculosis, UniProt P9WQ59); experiment: Fluorescence polarization aasay to screen for inhibitors that compete for the binding of FadD28 to a bisubstrate Measured in Biochemical System Using Plate Reader - 2147-01_Inhibitor_Dose_CherryPick_Activity.; assay type: functional, Mycobacterium tuberculosis H37Rv
T4 sequence (P9WQ59 whole entry): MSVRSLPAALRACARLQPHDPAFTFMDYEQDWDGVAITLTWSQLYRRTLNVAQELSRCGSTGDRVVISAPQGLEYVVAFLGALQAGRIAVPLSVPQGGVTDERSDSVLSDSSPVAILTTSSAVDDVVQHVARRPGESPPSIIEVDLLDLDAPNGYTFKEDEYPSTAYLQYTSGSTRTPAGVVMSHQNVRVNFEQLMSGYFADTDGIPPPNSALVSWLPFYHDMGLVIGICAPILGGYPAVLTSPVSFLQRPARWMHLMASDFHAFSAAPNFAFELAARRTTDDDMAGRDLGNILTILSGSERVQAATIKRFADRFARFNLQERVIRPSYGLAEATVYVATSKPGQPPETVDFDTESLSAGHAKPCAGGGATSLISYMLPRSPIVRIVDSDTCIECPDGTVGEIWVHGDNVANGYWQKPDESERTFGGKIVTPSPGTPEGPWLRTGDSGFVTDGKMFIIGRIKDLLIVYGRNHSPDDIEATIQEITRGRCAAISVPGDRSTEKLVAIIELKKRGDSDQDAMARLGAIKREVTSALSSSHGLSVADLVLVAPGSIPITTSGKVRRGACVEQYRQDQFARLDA

Phospholipase A2 = Phospholipase A2 (Homo sapiens, UniProt P04054); assay type: functional;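 note: confirmatory dose-response counterscreen on phospholipase A2, testing hits that came from an ultra-high-throughput screen for ATG4B inhibitors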
[8] = target: T5, Heat shock factor protein 1 (Mus musculus, UniProt P38532); experiment: HSF1 potentiators in luciferase reporter cells, confirmation, cell-based, NIH3T3, luminescence, dose retest (AID 435004); assay type: functional;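 note: stress induced by proteasome inhibitor MG132 added 30 min after compound; luciferase reporter driven by HSF1 response element in NIH3T3 cells; actives raise luminescence as potentiators of the MG132 stress response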
T5 sequence (P38532 whole entry): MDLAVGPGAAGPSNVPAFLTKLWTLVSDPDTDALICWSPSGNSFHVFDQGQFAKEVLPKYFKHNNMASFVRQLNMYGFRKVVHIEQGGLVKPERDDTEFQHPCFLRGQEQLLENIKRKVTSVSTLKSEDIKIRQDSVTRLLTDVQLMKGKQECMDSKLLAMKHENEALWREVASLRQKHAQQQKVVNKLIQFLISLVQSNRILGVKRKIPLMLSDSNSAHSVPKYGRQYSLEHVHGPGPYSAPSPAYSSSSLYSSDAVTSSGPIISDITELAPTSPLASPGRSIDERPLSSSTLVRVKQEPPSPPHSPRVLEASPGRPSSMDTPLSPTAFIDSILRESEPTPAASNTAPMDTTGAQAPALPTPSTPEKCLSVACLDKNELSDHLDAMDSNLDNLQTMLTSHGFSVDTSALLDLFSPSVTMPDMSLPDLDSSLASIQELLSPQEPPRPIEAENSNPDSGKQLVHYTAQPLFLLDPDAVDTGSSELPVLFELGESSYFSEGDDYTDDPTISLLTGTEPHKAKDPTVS

[9] = growth suppression of beta-catenin-knockout colon cells, dose response, cell-based, HCT116, human colon tumor (AID 1045); assay type: functional;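 note: HCT116 colon tumor cells with beta catenin knocked out; cells exposed to compound for 60 hours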
[10] = Fluorescence-based cell-based high throughput dose response assay for inhibitors of the interaction of nucleotide-binding oligomerization domain containing 2 (NOD2) and the receptor-interacting serine-threonine kinase 2 (RIPK2).; assay type: functional; conditions: Homo sapiens
[11] = growth suppression of PTEN-null colon cells, dose response, cell-based, HCT116 PTEN knockout (AID 1047); assay type: functional;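 note: HCT116 colon tumor cells with PTEN knocked out; cells exposed to compound for 60 hours before readout; potency for loss of cell viability measured by luminescence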

Sequence of Phospholipase A2 (P04054 whole entry): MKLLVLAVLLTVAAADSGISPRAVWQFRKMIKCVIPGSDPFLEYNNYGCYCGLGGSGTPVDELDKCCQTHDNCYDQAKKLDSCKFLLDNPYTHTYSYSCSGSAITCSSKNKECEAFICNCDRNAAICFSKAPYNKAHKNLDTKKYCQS

For `COCCn1c(C)cc(C(=O)COC(=O)CNC(=O)c2ccccc2)c1C`, the IC50 [1] was > 50 µM (not active).

For `Oc1ccc(F)c2cccnc12`, the IC50 [2] was 7.42 µM (active) and the IC50 (cells) was 4.21 µM (active).

In the case of `O=C1c2cccc(OCc3ccc(F)cc3)c2CCN1Cc1ccccc1`, the AC50 [3] is reported as 10.1 µM (active) and the AC50 [4] is reported as 4.11 µM (active).

For `O=C(c1ccc(S(=O)(=O)N2CCOCC2)cc1)N1CCN(c2cccc(Cl)c2)CC1`, the IC50 [5] was > 100 µM (active).

In the case of `COC(=O)c1cnn2c(C)c(Cc3cccc(F)c3)c(C)nc12`, the CC50 [6] is reported as > 40 µM (active).

For `CCOC(=O)N1CCC(N2C(=O)c3ccccc3C2Nc2ccccc2)CC1` (configuration not stated), the IC50 [5] was > 100 µM (active).

In the case of `O=C(O)c1cc(Br)ccc1NN=C1CCCCC1`, the IC50 (Cysteine protease ATG4B) is reported as 13.4 µM (active), the AC50 [7] is reported as > 100 µM (inactive) and the IC50 (Phospholipase A2) is reported as 9.4 µM (active).

With `Cc1cc(SC#N)cc(C)c1NC(=O)CCl` the EC50 [8] was 5.97 µM (active), the EC50 [9] was 17.4 µM (active) and the IC50 [10] was 11.1 µM (inactive). For the same compound, the EC50 [11] was 19.8 µM (active).

In the case of `Cc1ccc(CN(C(=O)Cn2nnc3ccccc32)C(C(=O)NCc2ccco2)c2cccs2)cc1` (configuration not stated), the CC50 [6] is reported as > 40 µM (active).

In the case of `CC(C)(C)NC(=O)c1ccc(Sc2ccccc2)c([N+](=O)[O-])c1`, the IC50 [1] is reported as 11.9 µM (not active).
